# Experimental data taken from patent US20250120989A1, “BRIDGED TRICYCLIC CARBAMOYLPYRIDONE COMPOUNDS AND USES THEREOF” (priority 2023, published 2025).
# Legend:
# [1] = system: HIV-1 (IIIB); test: microbe, parasite or virus in culture; format: cell-based; details: Human immunodeficiency virus 1, MT4, 120 h; HIV-1 (IIIB) replication in MT-4 cells, 5 days, Cell Titer Glo; read-out: MT4 EC50
# [2] = in vitro; details: human, uninfected MT-4 cells
# [3] = physchem; details: FaSSIF, 23 °C, thermodynamic from solid
Compound,EC50 [1] [µM],CC50 at 5 days [2] [µM],solubility thermodynamic at 24 h [3] [µg/mL]
"CC1=NO[C@@]2(CC[C@H](C)N3C[C@H]2n2cc(C(=O)NCc4ccc(F)cc4F)c(=O)c(OCOC(=O)OCC(C)(C)COP(=O)(O)O)c2C3=O)C1 [Compound 12, (((3′S,5S,7′R)-10′-((2,4-difluorobenzyl)carbamoyl)-3,3′-dimethyl-1′,11′-dioxo-1′,4′,5′,11′-tetrahydro-3′H,4H,7′H-spiro[isoxazole-5,6′-[2,7]methanopyrido[1,2-a][1,4]diazonin]-12′-yl)oxy)methyl (2,2-dimethyl-3-(phosphonooxy)propyl) carbonate]",0.00201,14,5280
"COC1=NO[C@@]2(CC[C@H](C)N3C[C@H]2n2cc(C(=O)NCc4ccc(F)cc4F)c(=O)c(OCOC(=O)O[C@H](C)COP(=O)(O)O)c2C3=O)C1 [Compound 54, (((3′S,5S,7′R)-10′-((2,4-difluorobenzyl)carbamoyl)-3-methoxy-3′-methyl-1′,11′-dioxo-1′,4′,5′,11′-tetrahydro-3′H,4H,7′H-spiro[isoxazole-5,6′-[2,7]methanopyrido[1,2-a][1,4]diazonin]-12′-yl)oxy)methyl ((R)-1-(phosphonooxy)propan-2-yl) carbonate]",0.00432,15.5,4660
"CC1=NO[C@@]2(CC[C@H](C)N3C[C@H]2n2cc(C(=O)NCc4ccc(F)cc4F)c(=O)c(OCOC(=O)C(C)(C)CCN(CC(=O)O)C(=O)OCOP(=O)(O)O)c2C3=O)C1 [Compound 43, N-(4-((((3′S,5S,7′R)-10′-((2,4-difluorobenzyl)carbamoyl)-3,3′-dimethyl-1′,11′-dioxo-1′,4′,5′,11′-tetrahydro-3′H,4H,7′H-spiro[isoxazole-5,6′-[2,7]methanopyrido[1,2-a][1,4]diazonin]-12′-yl)oxy)methoxy)-3,3-dimethyl-4-oxobutyl)-N-(((phosphonooxy)methoxy)carbonyl)glycine]",0.00177,8.46,5420
"CC1=NO[C@@]2(CC[C@H](C)N3C[C@H]2n2cc(C(=O)NCc4ccc(F)cc4F)c(=O)c(OCOC(=O)O[C@@H](C)[C@@H](C)OP(=O)(O)O)c2C3=O)C1 [Compound 57, (((3′S,5S,7′R)-10′-((2,4-difluorobenzyl)carbamoyl)-3,3′-dimethyl-1′,11′-dioxo-1′,4′,5′,11′-tetrahydro-3′H,4H,7′H-spiro[isoxazole-5,6′-[2,7]methanopyrido[1,2-a][1,4]diazonin]-12′-yl)oxy)methyl ((2S,3R)-3-(phosphonooxy)butan-2-yl) carbonate]",0.00232,19.9,4630
"COC1=NO[C@@]2(CC[C@H](C)N3C[C@H]2n2cc(C(=O)NCc4ccc(F)cc4F)c(=O)c(OCOC(=O)O[C@@H](C)[C@@H](C)OP(=O)(O)O)c2C3=O)C1 [Compound 59, (((3′S,5S,7′R)-10′-((2,4-difluorobenzyl)carbamoyl)-3-methoxy-3′-methyl-1′,11′-dioxo-1′,4′,5′,11′-tetrahydro-3′H,4H,7′H-spiro[isoxazole-5,6′-[2,7]methanopyrido[1,2-a][1,4]diazonin]-12′-yl)oxy)methyl ((2S,3R)-3-(phosphonooxy)butan-2-yl) carbonate]",0.00204,18.8,5240
"CC1=NO[C@@]2(CC[C@H](C)N3C[C@H]2n2cc(C(=O)NCc4ccc(F)cc4F)c(=O)c(OCOC(=O)OC[C@H](C)OP(=O)(O)O)c2C3=O)C1 [Compound 17, (((3′S,5S,7′R)-10′-((2,4-difluorobenzyl)carbamoyl)-3,3′-dimethyl-1′,11′-dioxo-1′,4′,5′,11′-tetrahydro-3′H,4H,7′H-spiro[isoxazole-5,6′-[2,7]methanopyrido[1,2-a][1,4]diazonin]-12′-yl)oxy)methyl ((S)-2-(phosphonooxy)propyl) carbonate]",0.00205,13.7,4590
"COC1=NO[C@@]2(CC[C@H](C)N3C[C@H]2n2cc(C(=O)NCc4ccc(F)cc4F)c(=O)c(OCOC(=O)OC[C@H](C)COP(=O)(O)O)c2C3=O)C1 [Compound 68, (((3′S,5S,7′R)-10′-((2,4-difluorobenzyl)carbamoyl)-3-methoxy-3′-methyl-1′,11′-dioxo-1′,4′,5′,11′-tetrahydro-3′H,4H,7′H-spiro[isoxazole-5,6′-[2,7]methanopyrido[1,2-a][1,4]diazonin]-12′-yl)oxy)methyl ((S)-2-methyl-3-(phosphonooxy)propyl) carbonate]",0.00211,16.1,4620
"CC1=NO[C@@]2(CC[C@H](C)N3C[C@H]2n2cc(C(=O)NCc4ccc(F)cc4F)c(=O)c(OCOC(=O)OCC4(COP(=O)(O)O)CC4)c2C3=O)C1 [Compound 33, (((3′S,5S,7′R)-10′-((2,4-difluorobenzyl)carbamoyl)-3,3′-dimethyl-1′,11′-dioxo-1′,4′,5′,11′-tetrahydro-3′H,4H,7′H-spiro[isoxazole-5,6′-[2,7]methanopyrido[1,2-a][1,4]diazonin]-12′-yl)oxy)methyl ((1-((phosphonooxy)methyl)cyclopropyl)methyl) carbonate]",0.00217,12.3,5680
"CC1=NO[C@@]2(CC[C@H](C)N3C[C@H]2n2cc(C(=O)NCc4ccc(F)cc4F)c(=O)c(OCOC(=O)OCCOP(=O)(O)O)c2C3=O)C1 [Compound 4, (((3′S,5S,7′R)-10′-((2,4-difluorobenzyl)carbamoyl)-3,3′-dimethyl-1′,11′-dioxo-1′,4′,5′,11′-tetrahydro-3′H,4H,7′H-spiro[isoxazole-5,6′-[2,7]methanopyrido[1,2-a][1,4]diazonin]-12′-yl)oxy)methyl (2-(phosphonooxy)ethyl) carbonate]",0.00095,11.6,4300
"CC1=NO[C@@]2(CC[C@H](C)N3C[C@H]2n2cc(C(=O)NCc4ccc(F)cc4F)c(=O)c(OCOC(=O)CCCOP(=O)(O)O)c2C3=O)C1 [Compound 40, (((3′S,5S,7′R)-10′-((2,4-difluorobenzyl)carbamoyl)-3,3′-dimethyl-1′,11′-dioxo-1′,4′,5′,11′-tetrahydro-3′H,4H,7′H-spiro[isoxazole-5,6′-[2,7]methanopyrido[1,2-a][1,4]diazonin]-12′-yl)oxy)methyl 4-(phosphonooxy)butanoate]",0.00126,12.6,5340
"COC1=NO[C@@]2(CC[C@H](C)N3C[C@H]2n2cc(C(=O)NCc4ccc(F)cc4F)c(=O)c(OCOC(=O)O[C@H](C)[C@@H](C)OP(=O)(O)O)c2C3=O)C1 [Compound 61, (((3′S,5S,7′R)-10′-((2,4-difluorobenzyl)carbamoyl)-3-methoxy-3′-methyl-1′,11′-dioxo-1′,4′,5′,11′-tetrahydro-3′H,4H,7′H-spiro[isoxazole-5,6′-[2,7]methanopyrido[1,2-a][1,4]diazonin]-12′-yl)oxy)methyl ((2R,3R)-3-(phosphonooxy)butan-2-yl) carbonate]",0.00235,20.9,4800
